For series [1] the following is noted: cited from earlier work.
Series [2] can be described thus: Solubility of L-carnitine tartrate in ethanol in relation to the water content of the ethanol (FIG. 1). In kind it is physicochemical. To be noted: ethanol comprising less than 5% water / no or low amounts of water. From the text: Without being bound to theory, it is assumed that the strong improvements of the inventive process are associated with the low solubility of L-carnitine tartrate in ethanol comprising no water or only low amounts of water. […] The relationship of L-carnitine tartrate solubility to the water content of ethanol is shown in the scheme of FIG. 1. […] Thereby, high yields are obtained even when avoiding extreme temperatures for heating and cooling.

`C[N+](C)(C)C[C@H](O)CC(=O)[O-].O=C(O)C(O)C(O)C(=O)O` [L-carnitine tartrate, L-carnitine L-tartrate]: the stability during storage result in series [1] (normal air moisture, disclosed in EP 0 434 088 A1) is recorded as “stable”. The solubility in ethanol result in series [2] (L-tartrate) is recorded as “decreased dramatically”; in series [2] (listed as carnitine tartrate, L-tartrate), “very low”.

As for `C[N+](C)(C)CC(O)CC(=O)[O-]` [L-carnitine, 3-hydroxy-4-trimethylammonio-butanoate], the hygroscopicity result in series [1] (pure carnitine) is “highly hygroscopic”. Also, the solubility in ethanol result in series [2] is on record as “almost insoluble”.

Values taken from patent publication US8779188B2, “Process for the production of L-carnitine tartrate” (Lonza Ltd., priority 2010, dated 2014).
